Test results: article PMC11971462, “Generation and validation of a novel multitarget small molecule in glioblastoma” (Cell Death & Disease, 2025)

Test system: GNS166 cells
Assay: Label-free proteomics differential expression
Assay type: cell-based, human
Method: Proteomic studies were performed by the Proteomics Facility of the CIC bioGUNE by label-free relative quantification on nLC MS/MS. […] In both approaches, the top 20 enriched terms were plotted and the pathways were clustered using divisive hierarchical clustering based on pairwise Jaccard distances.

Q: With `C#CCN(Cc1cc2cc(OCCCN3CCCCC3)ccc2n1S(=O)(=O)c1ccccc1)C(=O)CCCCCCC(=O)NO` [DDI] as the compound, how does the “LogFC STAU1_HUMAN” value (protein O95793) read?
A: -0.5064

Q: What about the “LogFC BPNT1_HUMAN” value (protein O95861 GN=BPNT1) of the same compound?
A: 0.8709

Q: What about the “Direction MBD3_HUMAN” value (protein O95983) of the same compound?
A: Down

Q: And the “LogFC MBD3_HUMAN” value (protein O95983)?
A: -1.39

Q: What about the “Direction ZBED1_HUMAN” value (protein O96006) of the same compound?
A: Down

Q: What about the “LogFC ZBED1_HUMAN” value (protein O96006) of the same compound?
A: -1.855

Q: And the “Direction NSD2_HUMAN” value (protein O96028)?
A: Down

Q: What about the “LogFC NSD2_HUMAN” value (protein O96028) of the same compound?
A: -2.1573

Q: And the “LogFC TPC2B_HUMAN” value (protein P0DI82 GN=TRAPPC2B)?
A: 1.676

Q: What about the “LogFC HS71A_HUMAN” value (protein P0DMV8 GN=HSPA1A) of the same compound?
A: 0.6446

Q: And the “LogFC AL1A1_HUMAN” value (protein P00352 GN=ALDH1A1)?
A: 1.798

Q: What about the “Direction EGFR_HUMAN” value (protein P00533) of the same compound?
A: Down

Q: And the “LogFC EGFR_HUMAN” value (protein P00533)?
A: -0.977

Q: And the “LogFC TPA_HUMAN” value (protein P00750 GN=PLAT)?
A: 1.254

Q: What about the “LogFC CAH2_HUMAN” value (protein P00918 GN=CA2) of the same compound?
A: 2.905

Q: And the “LogFC LDLR_HUMAN” value (protein P01130 GN=LDLR)?
A: -1.436

Q: What about the “LogFC TFR1_HUMAN” value (protein P02786 GN=TFRC) of the same compound?
A: 0.6801

Q: What about the “LogFC TRFE_HUMAN” value (protein P02787 GN=TF) of the same compound?
A: 1.471

Q: What about the “LogFC FRIL_HUMAN” value (protein P02792 GN=FTL) of the same compound?
A: 2.1013

Q: What about the “LogFC GLCM_HUMAN” value (protein P04062 GN=GBA) of the same compound?
A: 1.34

Q: And the “Direction ANXA1_HUMAN” value (protein P04083)?
A: Down

Q: What about the “LogFC ANXA1_HUMAN” value (protein P04083) of the same compound?
A: -0.1864

Q: And the “LogFC OAT_HUMAN” value (protein P04181 GN=OAT)?
A: 0.8669

Q: And the “LogFC TBB4A_HUMAN” value (protein P04350 GN=TUBB4A)?
A: 2.022

Q: What about the “LogFC AT1B1_HUMAN” value (protein P05026 GN=ATP1B1) of the same compound?
A: 0.7382

Q: And the “LogFC CHLE_HUMAN” value (protein P06276 GN=BCHE)?
A: 1.793

Q: And the “LogFC GELS_HUMAN” value (protein P06396 GN=GSN)?
A: 1.338

Q: What about the “Direction CDK1_HUMAN” value (protein P06493) of the same compound?
A: Down

Q: And the “LogFC CDK1_HUMAN” value (protein P06493)?
A: -2.828

Q: What about the “LogFC H10_HUMAN” value (protein P07305 GN=H1-0) of the same compound?
A: 2.4177

Q: And the “Direction CAN1_HUMAN” value (protein P07384)?
A: Down

Q: What about the “LogFC CAN1_HUMAN” value (protein P07384) of the same compound?
A: -0.5477

Q: And the “LogFC HEXB_HUMAN” value (protein P07686 GN=HEXB)?
A: 2.1461

Q: What about the “LogFC TNR16_HUMAN” value (protein P08138 GN=NGFR) of the same compound?
A: 4.357

Q: What about the “LogFC ASNS_HUMAN” value (protein P08243 GN=ASNS) of the same compound?
A: 0.9749

Q: And the “LogFC ANXA5_HUMAN” value (protein P08758 GN=ANXA5)?
A: 0.5383

Q: What about the “Direction SRP19_HUMAN” value (protein P09132) of the same compound?
A: Down

Q: And the “LogFC SRP19_HUMAN” value (protein P09132)?
A: -0.7201

Q: What about the “Direction HMGB1_HUMAN” value (protein P09429) of the same compound?
A: Down

Q: And the “LogFC HMGB1_HUMAN” value (protein P09429)?
A: -0.3836

Q: What about the “LogFC SPRC_HUMAN” value (protein P09486 GN=SPARC) of the same compound?
A: 0.9159

Q: What about the “Direction DPOLA_HUMAN” value (protein P09884) of the same compound?
A: Down

Q: And the “LogFC DPOLA_HUMAN” value (protein P09884)?
A: -0.7754

Q: What about the “LogFC TZAP_HUMAN” value (protein P10074 GN=ZBTB48) of the same compound?
A: 0.6846

Q: What about the “LogFC LYAG_HUMAN” value (protein P10253 GN=GAA) of the same compound?
A: 1.719

Q: What about the “LogFC RRAS_HUMAN” value (protein P10301 GN=RRAS) of the same compound?
A: 1.8337

Q: What about the “Direction COT1_HUMAN” value (protein P10589) of the same compound?
A: Down

Q: And the “LogFC COT1_HUMAN” value (protein P10589)?
A: -2.0511

Q: What about the “LogFC PPGB_HUMAN” value (protein P10619 GN=CTSA) of the same compound?
A: 1.238

Q: What about the “LogFC LAMC1_HUMAN” value (protein P11047 GN=LAMC1) of the same compound?
A: 1.296

Q: What about the “LogFC MTAP2_HUMAN” value (protein P11137 GN=MAP2) of the same compound?
A: 1.918

Q: And the “Direction GTR1_HUMAN” value (protein P11166)?
A: Down

Q: And the “LogFC GTR1_HUMAN” value (protein P11166)?
A: -1.063

Q: What about the “LogFC GTR3_HUMAN” value (protein P11169 GN=SLC2A3) of the same compound?
A: 0.7017

Q: And the “Direction PYGM_HUMAN” value (protein P11217)?
A: Down

Q: And the “LogFC PYGM_HUMAN” value (protein P11217)?
A: -1.18

Q: What about the “LogFC LAMP1_HUMAN” value (protein P11279 GN=LAMP1) of the same compound?
A: 0.9125

Q: And the “Direction TOP2A_HUMAN” value (protein P11388)?
A: Down

Q: What about the “LogFC TOP2A_HUMAN” value (protein P11388) of the same compound?
A: -2.075

Q: And the “LogFC G6PD_HUMAN” value (protein P11413 GN=G6PD)?
A: 0.8016

Q: And the “LogFC PRPS2_HUMAN” value (protein P11908 GN=PRPS2)?
A: 1.0339

Q: What about the “Direction COBA1_HUMAN” value (protein P12107) of the same compound?
A: Down

Q: What about the “LogFC COBA1_HUMAN” value (protein P12107) of the same compound?
A: -0.989

Q: What about the “Direction CO6A1_HUMAN” value (protein P12109) of the same compound?
A: Down

Q: What about the “LogFC CO6A1_HUMAN” value (protein P12109) of the same compound?
A: -2.398

Q: And the “LogFC LAMP2_HUMAN” value (protein P13473 GN=LAMP2)?
A: 0.7741

Q: And the “LogFC MTDC_HUMAN” value (protein P13995 GN=MTHFD2)?
A: 1.415

Q: What about the “LogFC CBPM_HUMAN” value (protein P14384 GN=CPM) of the same compound?
A: 1.371

Q: What about the “Direction CCNB1_HUMAN” value (protein P14635) of the same compound?
A: Down

Q: And the “LogFC CCNB1_HUMAN” value (protein P14635)?
A: -2.713

Q: And the “LogFC ARSA_HUMAN” value (protein P15289 GN=ARSA)?
A: 0.8733

Q: And the “LogFC NQO2_HUMAN” value (protein P16083 GN=NQO2)?
A: 1.439

Q: What about the “Direction ITB4_HUMAN” value (protein P16144) of the same compound?
A: Down

Q: What about the “LogFC ITB4_HUMAN” value (protein P16144) of the same compound?
A: -1.613

Q: And the “LogFC CBR1_HUMAN” value (protein P16152 GN=CBR1)?
A: 1.143

Q: What about the “Direction ANK1_HUMAN” value (protein P16157) of the same compound?
A: Down

Q: What about the “LogFC ANK1_HUMAN” value (protein P16157) of the same compound?
A: -1.996

Q: And the “Direction GCFC2_HUMAN” value (protein P16383)?
A: Down

Q: And the “LogFC GCFC2_HUMAN” value (protein P16383)?
A: -2.09

Q: And the “LogFC SYN1_HUMAN” value (protein P17600 GN=SYN1)?
A: 2.1979

Q: What about the “Direction CAN2_HUMAN” value (protein P17655) of the same compound?
A: Down

Q: And the “LogFC CAN2_HUMAN” value (protein P17655)?
A: -0.5036

Q: What about the “LogFC DDX5_HUMAN” value (protein P17844 GN=DDX5) of the same compound?
A: -0.6799

Q: And the “Direction PFKAL_HUMAN” value (protein P17858)?
A: Down

Q: What about the “LogFC PFKAL_HUMAN” value (protein P17858) of the same compound?
A: -0.5357

Q: And the “Direction ITB5_HUMAN” value (protein P18084)?
A: Down

Q: And the “LogFC ITB5_HUMAN” value (protein P18084)?
A: -1.897

Q: What about the “Direction SDC1_HUMAN” value (protein P18827) of the same compound?
A: Down

Q: What about the “LogFC SDC1_HUMAN” value (protein P18827) of the same compound?
A: -2.102

Q: And the “Direction PLCG1_HUMAN” value (protein P19174)?
A: Down

Q: And the “LogFC PLCG1_HUMAN” value (protein P19174)?
A: -1.036

Q: What about the “LogFC RXRA_HUMAN” value (protein P19793 GN=RXRA) of the same compound?
A: -2.086

Q: What about the “Direction MX1_HUMAN” value (protein P20591) of the same compound?
A: Down

Q: And the “LogFC MX1_HUMAN” value (protein P20591)?
A: -3.492

Q: What about the “LogFC FILA_HUMAN” value (protein P20930 GN=FLG) of the same compound?
A: 2.48

Q: And the “Direction RASA1_HUMAN” value (protein P20936)?
A: Down

Q: And the “LogFC RASA1_HUMAN” value (protein P20936)?
A: -0.7321

Q: What about the “LogFC VATB2_HUMAN” value (protein P21281 GN=ATP6V1B2) of the same compound?
A: 1.09

Q: And the “LogFC VATC1_HUMAN” value (protein P21283 GN=ATP6V1C1)?
A: 0.7781

Q: What about the “LogFC AOFA_HUMAN” value (protein P21397 GN=MAOA) of the same compound?
A: 0.8861

Q: What about the “LogFC ACOC_HUMAN” value (protein P21399 GN=ACO1) of the same compound?
A: 0.9989

Q: And the “LogFC TGM2_HUMAN” value (protein P21980 GN=TGM2)?
A: 2.278

Q: What about the “Direction PTPRE_HUMAN” value (protein P23469) of the same compound?
A: Down

Q: And the “LogFC PTPRE_HUMAN” value (protein P23469)?
A: -2.558

Q: What about the “Direction RIR1_HUMAN” value (protein P23921) of the same compound?
A: Down

Q: What about the “LogFC RIR1_HUMAN” value (protein P23921) of the same compound?
A: -1.151

Q: What about the “Direction MCM3_HUMAN” value (protein P25205) of the same compound?
A: Down

Q: And the “LogFC MCM3_HUMAN” value (protein P25205)?
A: -0.4173

Q: What about the “LogFC MOES_HUMAN” value (protein P26038 GN=MSN) of the same compound?
A: -0.6643

Q: What about the “Direction DNMT1_HUMAN” value (protein P26358) of the same compound?
A: Down

Q: What about the “LogFC DNMT1_HUMAN” value (protein P26358) of the same compound?
A: -0.8972

Q: What about the “Direction HMGB2_HUMAN” value (protein P26583) of the same compound?
A: Down

Q: What about the “LogFC HMGB2_HUMAN” value (protein P26583) of the same compound?
A: -0.4752

Q: And the “Direction SYVC_HUMAN” value (protein P26640)?
A: Down

Q: What about the “LogFC SYVC_HUMAN” value (protein P26640) of the same compound?
A: -0.2125
